Test results from patent US20240199688A1, “METHODS FOR REDUCING LIPASE ACTIVITY” (Regeneron Pharmaceuticals, Inc., priority 2022, published 2024).

Test system: polysorbate degrading activity
Assay: Reduction of polysorbate degrading activity by lipase inhibitors
Format: biochemical, CHO
[1] = 0.001 mM lipase inhibitor, relative to control without inhibitor

Molecule: O=C(Nc1cccc(-c2ccccc2)c1)OC1CCCCC1 [URB602, [1-1′-biphenyl]-3-t1-carbamicacid cyclohexyl ester]
- Percent reduction in polysorbate 20 degradation [1]: 0%
- Percent reduction in polysorbate 20 degradation (0.01 mM lipase inhibitor): 20%
- Percent reduction in polysorbate 20 degradation (0.1 mM lipase inhibitor): 0%

Molecule: diethylumbelliferyl phosphate
- Percent reduction in polysorbate 20 degradation [1]: 48%
- Percent reduction in polysorbate 20 degradation (0.01 mM lipase inhibitor): 100%
- Percent reduction in polysorbate 20 degradation (0.1 mM lipase inhibitor): >95%

Molecule: CCCCCCCCCCC[C@@H](C[C@@H]1OC(=O)[C@H]1CCCCCC)OC(=O)[C@H](CC(C)C)NC=O [Orlistat, orlistat]
- Percent reduction in polysorbate 20 degradation [1]: 0%
- Percent reduction in polysorbate 20 degradation (0.01 mM lipase inhibitor): 27.8%^
- Percent reduction in polysorbate 20 degradation (0.1 mM lipase inhibitor): 67%

Molecule: CCCCOc1ccccc1B(O)O [2-Butoxyphenyl boronic acid, 2-butoxyphenylboronic acid]
- Percent reduction in polysorbate 20 degradation [1]: 0%
- Percent reduction in polysorbate 20 degradation (0.01 mM lipase inhibitor): 28%
- Percent reduction in polysorbate 20 degradation (0.1 mM lipase inhibitor): 0%
